Assay results from patent US7888386B2, “3-(phenoxyphenylmethyl)pyrrolidine compounds” (Theravance, Inc., priority 2008, dated 2011).
pKi: −log10 of the molar value. Where two headings read alike, the source gives them in different places.

Key:
hSERT = target: T1, hSERT (Homo sapiens, UniProt P31645); assay: hSERT binding assay (Assay 1)
T1 construct: expressed in transfected cells; host or cells: HEK-293 derived cell line, stably transfected; membrane preparation
Summary of the method: (§1)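 Membranes from HEK-293 cells stably expressing human NET or SERT competed test compound against ^3H-nisoxetine (hNET) or ^3H-citalopram (hSERT). Buffer was 50 mM Tris-HCl pH 7.4, 120 mM NaCl, 5 mM KCl, 0.1% BSA and 400 μM ascorbic acid.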

hNET = target: T2, hNET (Homo sapiens, UniProt P23975); assay: hNET binding assay (Assay 1); settings: for Ki: read-out: NET pKi (converted)
T2 construct: expressed in transfected cells; host or cells: HEK-293 derived cell line, stably transfected; membrane preparation
Summary of the method: as §1

[1] = Thermal analysis (DSC) of crystalline salt; type: physicochemical; settings: crystalline monohydrochloride salt, heating ramp 10° C./min
Experimental: Differential scanning calorimetry (DSC) was performed using a TA Instruments Model Q-100 module with a Thermal Analyst controller. Data were collected and analyzed using TA Instruments Thermal Solutions software. A 1.64 mg sample of the crystalline form of Example 2 was accurately weighed into a covered aluminum pan. After a 5 minute isothermal equilibration period at 22° C., the sample was heated using a linear heating ramp of 10° C./min from 22° C. to 250° C.

[2] = ratio of binding Ki at hSERT to Ki at hNET, rounded off to the nearest tenth
[3] = membranes of HEK-293 cells expressing hNET, 1.0 nM 3H-nisoxetine
[4] = ratio of SERT Ki to NET Ki from binding assays
[5] = ratio of SERT Ki to NET Ki (binding)

T1 sequence (P31645 whole entry): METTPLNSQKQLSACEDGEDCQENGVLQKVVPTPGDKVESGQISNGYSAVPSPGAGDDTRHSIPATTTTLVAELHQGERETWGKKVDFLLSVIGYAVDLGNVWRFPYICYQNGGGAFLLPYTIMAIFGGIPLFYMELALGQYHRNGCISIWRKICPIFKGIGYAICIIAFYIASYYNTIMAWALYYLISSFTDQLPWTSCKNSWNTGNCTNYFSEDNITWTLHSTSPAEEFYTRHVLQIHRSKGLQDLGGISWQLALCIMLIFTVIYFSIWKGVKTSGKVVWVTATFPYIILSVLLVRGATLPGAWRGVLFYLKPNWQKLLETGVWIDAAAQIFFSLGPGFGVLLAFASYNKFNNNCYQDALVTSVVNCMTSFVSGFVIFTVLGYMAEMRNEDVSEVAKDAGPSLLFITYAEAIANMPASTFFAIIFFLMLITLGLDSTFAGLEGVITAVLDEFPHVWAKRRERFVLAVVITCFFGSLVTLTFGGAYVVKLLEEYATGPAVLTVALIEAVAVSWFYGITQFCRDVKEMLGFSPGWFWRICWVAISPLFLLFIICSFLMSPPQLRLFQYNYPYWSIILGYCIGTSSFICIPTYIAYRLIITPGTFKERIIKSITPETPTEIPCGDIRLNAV
T2 sequence (P23975 whole entry): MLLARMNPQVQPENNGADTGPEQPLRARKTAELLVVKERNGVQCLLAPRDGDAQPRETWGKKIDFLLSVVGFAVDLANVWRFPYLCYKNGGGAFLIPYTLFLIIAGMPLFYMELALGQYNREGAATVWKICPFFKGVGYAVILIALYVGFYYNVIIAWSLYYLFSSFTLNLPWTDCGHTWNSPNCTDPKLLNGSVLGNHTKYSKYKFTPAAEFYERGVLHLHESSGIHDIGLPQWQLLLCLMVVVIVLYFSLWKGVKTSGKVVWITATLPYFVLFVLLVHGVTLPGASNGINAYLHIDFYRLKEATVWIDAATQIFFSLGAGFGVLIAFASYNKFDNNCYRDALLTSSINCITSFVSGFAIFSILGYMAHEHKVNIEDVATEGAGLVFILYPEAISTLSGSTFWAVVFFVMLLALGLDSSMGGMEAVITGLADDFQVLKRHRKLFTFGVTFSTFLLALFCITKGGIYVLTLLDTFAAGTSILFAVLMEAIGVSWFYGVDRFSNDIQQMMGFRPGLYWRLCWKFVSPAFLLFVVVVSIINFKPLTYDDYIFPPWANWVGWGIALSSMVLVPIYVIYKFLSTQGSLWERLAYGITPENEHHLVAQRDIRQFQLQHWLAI

Row | Structure (SMILES) | SERT Ki/NET Ki (hSERT; [2]) | Ki (hNET; [3]) | also measured
1 | COc1ccccc1OC(c1ccccc1Cl)C1CCNC1 (centres unmarked) [Compound 20-16] | 4 | 1.26 nM | 
2 | COc1ccccc1OC(c1ccccc1Cl)C1CCNC1 (centres unmarked) [Compound 20-17] | 13 | 1 nM | 
3 | COc1ccccc1OC(c1ccc(Cl)cc1)C1CCNC1 (centres unmarked) [Compound 20-21] | 4 | 2 nM | 
4 | COc1ccccc1OC(c1ccccc1OC(F)(F)F)C1CCNC1 (centres unmarked) [Compound 20-23] | 1.6 | 5.01 nM | 
5 | COc1ccccc1OC(c1cccc(CO)c1)C1CCNC1 (centres unmarked) [Compound 20-26] | 10 | 3.98 nM | 
6 | COc1ccccc1OC(c1cccc(C(N)=O)c1)C1CCNC1 (centres unmarked) [Compound 20-30] | 25 | 2.51 nM | 
7 | COc1ccccc1O[C@H](c1cc(F)cc(F)c1)[C@@H]1CCNC1 [Compound 20-34] | 1 | 3.98 nM | 
8 | COc1ccccc1OC(c1cc(F)cc(Cl)c1)C1CCNC1 (centres unmarked) [Compound 20-35] | 16 | 0.631 nM | 
9 | Fc1cccc(OC(c2ccccc2)C2CCNC2)c1 (centres unmarked) [Compound 21-1] | 1 | 3.98 nM | 
10 | Brc1cccc(OC(c2ccccc2)C2CCNC2)c1 (centres unmarked) [Compound 21-5] | 0.2 | 3.16 nM | 
11 | Ic1cccc(OC(c2ccccc2)C2CCNC2)c1 (centres unmarked) [Compound 21-6] | 0.2 | 3.98 nM | 
12 | Cc1cccc(OC(c2ccccc2)C2CCNC2)c1 (centres unmarked) [Compound 21-7] | 0.5 | 3.98 nM | 
13 | Cc1cccc(O[C@@H](c2ccccc2)[C@H]2CCNC2)c1 [Compound 21-8] | 2.5 | 6.31 nM | 
14 | c1ccc(Oc2cccc(OC(c3ccccc3)C3CCNC3)c2)cc1 (centres unmarked) [Compound 21-13] | 1.3 | 1.26 nM | 
15 | Clc1cccc(Oc2cccc(OC(c3ccccc3)C3CCNC3)c2)c1 (centres unmarked) [Compound 21-14] | 0.8 | 5.01 nM | 
16 | Clc1ccc(Oc2cccc(OC(c3ccccc3)C3CCNC3)c2)cc1 (centres unmarked) [Compound 21-16] | 0.3 | 6.31 nM | 
17 | Fc1cccc(C(Oc2cccc(Cl)c2)C2CCNC2)c1 (centres unmarked) [Compound 22-3] | 0.1 | 7.94 nM | 
18 | Clc1cccc(OC(c2cccc(Cl)c2)C2CCNC2)c1 (centres unmarked) [Compound 22-4] | 0.2 | 7.94 nM | 
19 | Cc1ccc(OC(c2ccccc2)C2CCNC2)cc1 (centres unmarked) [Compound 23-6] | 0.2 | 6.31 nM | 
20 | c1ccc(COc2ccc(OC(c3ccccc3)C3CCNC3)cc2)cc1 (centres unmarked) [Compound 23-15] | 2 | 7.94 nM | 
21 | Fc1cccc(OC(c2ccccc2)C2CCNC2)c1F (centres unmarked) [Compound 25-1] | 32 | 0.794 nM | 
22 | Fc1cccc(O[C@H](c2ccccc2)[C@@H]2CCNC2)c1F [Compound 25-2] | 0.2 | 6.31 nM | 
23 | Fc1c(Cl)cccc1OC(c1ccccc1)C1CCNC1 (centres unmarked) [Compound 25-3] | 0.5 | 0.794 nM | 

Row | Structure (SMILES) | SERT Ki/NET Ki (hSERT; [2]) | Ki (hNET; [3]) | also measured
24 | Fc1c(Cl)cccc1O[C@H](c1ccccc1)[C@@H]1CCNC1 [Compound 25-5] | 0.1 | 1.58 nM | 
25 | Fc1c(Oc2ccccc2)cccc1OC(c1ccccc1)C1CCNC1 (centres unmarked) [Compound 25-8] | 1.3 | 2.51 nM | 
26 | Clc1c(Oc2ccccc2)cccc1OC(c1ccccc1)C1CCNC1 (centres unmarked) [Compound 25-15] | 0.2 | 2.51 nM | 
27 | Cc1c(F)cccc1O[C@@H](c1ccccc1)[C@H]1CCNC1 [Compound 25-19] | 4 | 0.794 nM | 
28 | Cc1c(Cl)cccc1OC(c1ccccc1)C1CCNC1 (centres unmarked) [Compound 25-20] | 0.2 | 0.631 nM | 
29 | Cc1c(Cl)cccc1OC(c1ccccc1)C1CCNC1 (centres unmarked) [Compound 25-21] | 0.6 | 1.26 nM | 
30 | Cc1c(Cl)cccc1O[C@H](c1ccccc1)[C@@H]1CCNC1 [Compound 25-22] | 0.2 | 0.631 nM | 
31 | Cc1cccc(OC(c2ccccc2)C2CCNC2)c1C (centres unmarked) [Compound 25-23] | 0.1 | 1.58 nM | 
32 | Cc1cccc(O[C@@H](c2ccccc2)[C@H]2CCNC2)c1C [Compound 25-24] | 0.3 | 2.51 nM | 
33 | COc1c(F)cccc1O[C@@H](c1ccccc1)[C@H]1CCNC1 [Compound 25-26] | 13 | 1.26 nM | 
34 | CC(=O)c1c(F)cccc1OC(c1ccccc1)C1CCNC1 (centres unmarked) [Compound 25-30] | 10 | 3.16 nM | 
35 | COC(=O)c1c(F)cccc1OC(c1ccccc1)C1CCNC1 (centres unmarked) [Compound 25-34] | 100 | 1 nM | 
36 | Fc1ccccc1C(Oc1cccc(Cl)c1Cl)C1CCNC1 (centres unmarked) [Compound 26-1] |  |  | SERT Ki/NET Ki (hSERT; [4]): 0.1; Ki (hNET; hNET binding assay): 1.58 nM
37 | Clc1cccc(C(Oc2cccc(Cl)c2Cl)C2CCNC2)c1 (centres unmarked) [Compound 26-3] |  |  | SERT Ki/NET Ki (hSERT; [4]): 0.1; Ki (hNET; hNET binding assay): 5.01 nM
38 | COc1cccc(C(Oc2cccc(Cl)c2Cl)C2CCNC2)c1 (centres unmarked) [Compound 26-6] |  |  | SERT Ki/NET Ki (hSERT; [4]): 0.1; Ki (hNET; hNET binding assay): 3.98 nM
39 | CCOc1ccccc1OC(c1ccccc1)C1CCNC1 (centres unmarked) [Ex. 5, 3-[(2-Ethoxyphenoxy)phenylmethyl]pyrrolidine] | 32 | 1.26 nM | 
40 | Fc1cc(F)c(Cl)c(O[C@@H](c2ccccc2)[C@H]2CCNC2)c1 [Ex. 8-1, (S)-3-[(R)-(2-Chloro-3,5-difluorophenoxy)phenylmethyl]pyrrolidine] |  |  | SERT Ki/NET Ki (hSERT; [5]): 2.5; Ki (hNET; hNET binding): 2 nM
41 | Fc1cccc(O[C@@H](c2ccccc2)[C@H]2CCNC2)c1Cl [Ex. 9-4, (S)-3-[(R)-(2-chloro-3-fluorophenoxy)phenylmethyl]pyrrolidine] | 6.3 | 0.631 nM | 
42 | Clc1cc(Cl)c(Cl)c(OC(c2ccccc2)C2CCNC2)c1Cl (centres unmarked) [Ex. 10-2, 3-[phenyl-(2,3,5,6-tetrachlorophenoxy)methyl]pyrrolidine] |  |  | SERT Ki/NET Ki (hSERT; ratio of binding Ki at SERT to Ki at NET, the tables list only compounds with a ratio in the range 0.1-100): 0.1; pKi (hNET; NET pKi, hNET binding, the tables list only compounds with NET pKi≧8): 8.90
43 | Fc1cc(F)c(Cl)c(O[C@@H](c2ccccc2)[C@H]2CCNC2)c1Cl [Ex. 11, (S)-3-[(R)-(2,6-dichloro-3,5-difluorophenoxy)phenylmethyl]pyrrolidine] |  |  | no thermal decomposition below (DSC) [1]: ≥ 190.7 °C
44 | Cc1ccc(F)c(O[C@@H](c2ccccc2)[C@H]2CCNC2)c1Cl [Ex. 13, (S)-3-[(R)-(2-chloro-6-fluoro-3-methylphenoxy)phenylmethyl]pyrrolidine] |  |  | SERT Ki/NET Ki (hSERT; [5]): 1.3; Ki (hNET; hNET binding): 0.251 nM
45 | Fc1ccc(F)c(O[C@H](c2ccccc2)[C@@H]2CCNC2)c1Cl [Ex. 14, (R)-3-[(S)-(2-chloro-3,6-difluorophenoxy)phenyl-methyl]pyrrolidine] |  |  | no thermal decomposition below (DSC) [1]: ≥ 160 °C
46 | Clc1cc(Cl)cc(O[C@H](c2ccccc2)[C@@H]2CCNC2)c1 [Ex. 16, (R)-3-[(S)-(3,5-Dichlorophenoxy)phenylmethyl]pyrrolidine] |  |  | no thermal decomposition below (DSC) [1]: ≥ 220 °C
